How the values were obtained:
[1] = test system: peripheral blood monocyte (PBMC); assay: T Lymphocyte Proliferation Assay (PHA-stimulated PBMC, BrdU incorporation ELISA); format: cell-based; conditions: Homo sapiens, PBMCs stimulated with 2 µg/ml phytohemoagglutinin, 72 h
Description: We used a nonradioactive technique for the measurement of in vitro T-cell proliferation (Messele T et al. Clinical and Diagnostic Laboratory Immunology,687-692,2002).
Peripheral blood mononuclear cells (PBMCs) were isolated from human blood obtained from volunteer donators. PBMCs were isolated by centrifugation in ACCUSPIN tubes using HISTOPAQUE.
PBMCs were stimulated with PHA and cell proliferation was measured with a Roche colorimetric BromUridin incorporation ELISA kit.
Inhibition of stimulated peripheral blood monocyte (PBMC) stimulation
PBMCs were isolated from the blood of healthy volunteers with the help of ACCUSPIN™ System Histopaque®-1077 tubes, washed and resuspended with 10^6 cells/ml in Dulbecco's modified eagles medium, containing 10 % fetal calf serum and 2 mM Glutamine.
The cells were stimulated with 2 µg/ml phytohemoagglutinin in the presence of test compound or blank vehicle for 72 h. 4 h prior to the end of the incubation period, 5-bromo-2'-desoxyuridine (BrdU) was added to label the proliferating cells. After the incubation, the cells were separated by centrifugation and the culture supernatant removed. Incorporated BrdU was quantified with the help of an enzyme-linked immunosorbent assay.
For the determination of the IC50 values (concentration of inhibitor required for 50% inhibition) at least four different inhibitor concentrations were applied. […]

[2] = test system: T-lymphocyte; conditions: inhibits T-lymphocyte proliferation; Kath JC et al. 1997; cited from earlier work
[3] = target: Kv1.3 (Homo sapiens, UniProt P22001); conditions: blocks Kv1.3 currents; Kath JC et al. 1997; cited from earlier work
[4] = target: T1, 20S proteasome (Homo sapiens, UniProt P28074); assay: Proteasome assay (chymotryptic activity, Suc-LLVT-AMC substrate); format: biochemical; conditions: 30°C, 20 min
T1 construct: purchased Immatics, Tübingen
Source text: Regulation of the immune response is controlled by a variety of signalling pathways such as T-cell or TNF receptor signalling (Chen G et al. Scienc,296 1634-1640,2002). To further characterize targets of compounds which we found active in the T-cell proliferation assay, we tested the compounds on a variety of targets involved in such pathways. Compounds described here are inhibitors of T-lymphocyte proliferation were active on three molecular targets: Kv1.3 ion channels and Inosine Monophosphate Dehydrogenase (IMPDH) and the human proteasome. The compounds described may act on one of these targets specifically or on several targets simultaneously.
The chymotryptic activity of the 20S proteasome (Immatics, Tübingen) was determined using a Tecan Ultra plate reader and Suc-LLVT-AMC as substrate (Bachem). […]

[5] = target: T2, Kv1.3 channels (Mus musculus, UniProt P16390); assay: Kv1.3 assay, whole-cell patch-clamp in stable transfected L929 cells; format: cell-based; conditions: c=20 µM; each compound tested on two different cells; steady-state current
T2 construct: expressed in transfected cells; host or cells: L929 cells
Description: The inhibition of Kv1.3 was measured in stable transfected cell lines expressing mouse Kv1.3 using the patch-clamp technique (Rauer H et al. J Biol Chem Vol.275, No. 2, 1201-1208, 2000), Rauer H Mol Pharmacol,50, 1625-1634, 1996, Rauer H et al. J Pharmacol, 127, 1065-1074, 1999).
Stable transfected L929 cells with Kv1.3 channels were grown in DMEM (Glutamax-I) media with 10% FCS, geneticin 330 µg/ml under 10% CO2 atmosphere.
Whole-cell patch-clamp configuration, with an external bath solution of 160 mM NaCl, 4,5 mM KCl, 1 mM MgCl, 2 mM CaCl2,5 mM HEPES, 10 mM EGTA and NaOH adjusted to pH 7. 4. Internal pipette solution for recording was 155 mM KF, 2 mM MgCl2 , 10 mM HEPES, 10 mM EGTA with KOH adjusted to pH 7.2. Currents were activated by a 200-ms voltage step from a holding potential of -80 to 40 mV every 30 s. Holding potential -80 mV.
Each compound was tested on two different cells. The cell was perfused with external bath solution (black line), then the compound was applied (c=20 µM). The resulting stedy-state current traces are shown as red lines. Example 3, 5, 6, 7, 8 are blockers.

T2 sequence (P16390 whole entry): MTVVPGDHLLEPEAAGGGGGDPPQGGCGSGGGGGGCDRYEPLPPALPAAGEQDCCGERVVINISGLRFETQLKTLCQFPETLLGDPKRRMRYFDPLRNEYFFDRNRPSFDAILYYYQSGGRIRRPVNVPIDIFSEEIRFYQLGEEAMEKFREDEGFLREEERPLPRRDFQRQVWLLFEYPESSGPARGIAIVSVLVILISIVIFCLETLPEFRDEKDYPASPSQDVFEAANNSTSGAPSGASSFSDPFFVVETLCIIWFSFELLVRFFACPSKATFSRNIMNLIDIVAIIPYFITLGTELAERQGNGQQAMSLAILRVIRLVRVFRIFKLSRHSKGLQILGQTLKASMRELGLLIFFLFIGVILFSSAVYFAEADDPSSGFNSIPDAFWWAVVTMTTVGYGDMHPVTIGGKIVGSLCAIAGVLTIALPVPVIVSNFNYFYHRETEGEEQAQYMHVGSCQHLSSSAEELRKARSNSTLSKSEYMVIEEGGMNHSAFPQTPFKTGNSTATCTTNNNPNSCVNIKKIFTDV
Sequence of Kv1.3 (P22001 whole entry): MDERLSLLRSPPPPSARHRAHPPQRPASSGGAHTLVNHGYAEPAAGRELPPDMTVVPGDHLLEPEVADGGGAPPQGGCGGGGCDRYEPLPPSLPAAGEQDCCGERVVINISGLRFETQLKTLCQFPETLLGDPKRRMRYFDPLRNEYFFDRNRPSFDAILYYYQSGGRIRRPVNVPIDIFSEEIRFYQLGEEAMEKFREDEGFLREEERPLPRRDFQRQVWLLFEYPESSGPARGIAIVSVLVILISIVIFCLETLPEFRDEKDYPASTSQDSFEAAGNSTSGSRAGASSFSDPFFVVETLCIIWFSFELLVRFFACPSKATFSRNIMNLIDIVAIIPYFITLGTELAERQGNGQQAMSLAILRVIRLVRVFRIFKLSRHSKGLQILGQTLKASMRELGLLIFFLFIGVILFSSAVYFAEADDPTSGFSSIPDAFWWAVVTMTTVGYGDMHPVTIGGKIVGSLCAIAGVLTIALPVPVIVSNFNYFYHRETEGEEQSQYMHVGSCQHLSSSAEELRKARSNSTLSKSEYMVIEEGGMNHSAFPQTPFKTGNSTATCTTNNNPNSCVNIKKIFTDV

O=C(Nc1ccc(S(=O)(=O)NCc2cc(F)c(F)c(F)c2)cc1)Nc1cccc(C2=N[C@@H](Cc3ccccc3)CO2)c1 [Example 22, 4-{3-[3-(4-(S)-Benzyl-4,5-dihydro-oxazol-2-yl)-phenyl]-ureido}-N-(3,4,5-trifluorobenzyl)-benzenesulfonamide]
IC50 [1]: < 5000 nM

noxiustoxin (TIINVKCTSPKQCSKPCKELYGSSAGAKCMNGKCKCYNN; UniProt P08815 1-39, looked up)
IC50 [2]: 8 nM | IC50 [3]: 0.2 nM

O=C(Nc1ccc(C2=N[C@H](c3ccccc3)CO2)cc1)Nc1ccc(S(=O)(=O)NCc2cc(F)c(F)c(F)c2)cc1 [Example 1, 4-{3-[4-(4-(R)-Phenyl-4,5-dihydro-oxazol-2-yl)-phenyl]-ureido}-N-(3,4,5-trifluorobenzyl)-benzenesulfonamide]
IC50 [4]: < 5000 nM | IC50 [1]: < 5000 nM

O=C(Nc1ccc(C2=N[C@H](Cc3ccccc3)CO2)cc1)Nc1ccc(S(=O)(=O)NCc2cc(F)c(F)c(F)c2)cc1 [Example 3, 4-{3-[4-(4-(R)-Benzyl-4,5-dihydro-oxazol-2-yl)-phenyl]- -ureido}-N-(3,4,5-trifluorobenzyl)-benzenesulfonamide]
Kv1.3 block [5]: blockers

From patent EP1718623B1, “COMPOUNDS AS INHIBITORS OF CELL PROLIFERATION AND VIRAL INFECTIONS” (4SC AG, priority 2004, dated 2005)
